Data reported in publication PMC12475274, “Harnessing indole scaffolds to identify small-molecule IRE1α inhibitors modulating XBP1 mRNA splicing” (Nature Communications, 2025).
pIC50: −log10 of the molar value. Where “and” joins values, the source holds several entries; their conditions need not be identical. Equal entries are not always repeated. Entries after “also recorded” stand apart in the source; their conditions may differ. Where two headings read alike, the source gives them in different places. Blank lines part the entries; values can stand above or below the molecule they belong to.

Tests used:
[1] = target: T1, phosphorylated IRE1α (p-IRE1α) (Homo sapiens, UniProt O75460); assay: FRET-based IRE1α RNase activity assay, phosphorylated IRE1α; type: biochemical
T1 construct: Human IRE1α kinase and RNase domain (residues 547–977) was subcloned into pLIB plasmid; His tag (with TEV cleavage site) (N, cleaved yes); made in house; host or cells: Sf9 insect cells, baculovirus (Bac-to-Bac)
Procedure: (§1) Human IRE1α kinase and RNase domain (residues 547–977) was subcloned into pLIB plasmid with a His tag and TEV cleavage site, and expressed using Bac-to-Bac expression system. The primers used are listed in Supplementary Table S3. The protein purification was performed following established procedures. Briefly, Sf9 cells were infected with baculovirus and incubated at 27 °C 110 rpm for 72 h. The cells were collected by centrifugation at 4000 × g for 15 min and the cell pellet was resuspended in lysis buffer (50 mM HEPES pH 7.5, 300 mM NaCl, 10% glycerol, 1 mM MgCl2, 1 mM TCEP, 5 mM imidazole), then supplemented with 1:10,000 benzonase (Sigma, E1014), 1 tablet/25 mL […]™ Protease Inhibitor Cocktail tablets (Sigma, S8830) and 1 mM PMSF before lysed by sonication at 4 °C. […] The protein elution was incubated with TEV protease to remove His tag at 4 °C overnight. Then the sample was diluted 1:6 in buffer (50 mM HEPES pH 7.5, 1 mM TCEP, 5% glycerol) and loaded onto a 5 mL pre-packaged Q HP anion exchange column (Cytiva, HiTrap Q HP) pre-equilibrated with QA buffer (50 mM HEPES pH 7.5, 50 mM NaCl, 1 mM TCEP, 5% glycerol). The unphosphorylated and phosphorylated protein was separated by eluting the protein with a very shallow gradient with 0-30% buffer QB (50 mM HEPES pH 7.5, 1 M NaCl, 1 mM TCEP, 5% glycerol) over 80 CV. Different peaks were collected separately and verified by LC-MS. The fully phosphorylated fraction was collected and further purified by size exclusion chromatography (Cytiva, HiLoad 16/600 Superdex 200 pg,) with SEC buffer (25 mM HEPES pH 7.5, 250 mM NaCl, 1 mM TCEP, 10% glycerol) and fractioned as monomeric peak. The rest protein fraction from the Q HP anion exchange column was incubated with Lambda protein phosphatase (New England BioLabs, P0753S) overnight at 4 °C, the dephosphorylation was confirmed by LC-MS. The unphosphorylated protein was further purified by size exclusion chromatography with the SEC buffer described above. The purified phosphorylated (p-IRE1α) and dephosphorylated (IRE1α) protein aliquots were stored at −80 °C for future usage.
(§2) The dual-labeled RNA substrate with a FAM at 5’ and the BHQ-1 at 3’ containing the XBP1 sequence (5′FAM-[…]-3′BHQ1) was purchased from Integrated DNA Technologies (IDT). The FRET-based IRE1α RNase activity assay was carried out in reaction buffer containing 20 mM HEPES pH 7.5, 50 mM KOAc, 1 mM MgOAc2, 1 mM DTT, 0.05% v/v TritonX-100, at a total reaction volume of 20 μL in a 384-well black plate (4514, Corning). For unphosphorylated IRE1α (IRE1α), a final concentration of 40 nM IRE1α protein and 100 nM RNA substrate was used. For phosphorylated IRE1 (p-IRE1α), a final concentration of 4 nM p-IRE1α protein and 200 nM RNA substrate was used. The indicated compound and IRE1α protein were incubated for 30 min at room temperature before the substrate was added to the reaction. The plate was then kinetically read over one hour at room temperature using a TECAN Spark plate reader. The measurement was carried out using the fluorescence top reading mode at the excitation wavelength of 485 nm and the emission wavelength of 535 nm with a 10 nm excitation and emission bandwidth. The linear part of the reaction curve was adopted and fitted with sample linear regression to obtain the slope, and the slope was adopted to reflect the reaction rate. The inhibition % was calculated by using the equation: inhibition% = 100 × (slope of DMSO control – slope of the sample)/(slope of DMSO control – slope of blank control), DMSO control: DMSO with protein and RNA substrate; Blank control: DMSO with RNA substrate. The IC50 values were calculated using the concentration-response model in GraphPad Prism 9.

[2] = target: T2, dephosphorylated IRE1α (547–977) (Homo sapiens, UniProt O75460); assay: FRET-based IRE1α RNase activity assay, dephosphorylated IRE1α; type: biochemical; details: for pIC50: FRET assay; for inhibition at 50 µM: read-out: IRE1α inhibition%
T2 construct: Human IRE1α kinase and RNase domain (residues 547–977) was subcloned into pLIB plasmid; His tag (with TEV cleavage site) (N, cleaved yes); made in house; host or cells: Sf9 insect cells, baculovirus (Bac-to-Bac)
Procedure: as §1
as §2, with “9. […]” for “9.”

[3] = FRET assay, RNase activity, mean (± SEM), read-out: p-IRE1α IC50
[4] = FRET assay, source data, unit from Fig. 3, read-out: p-IRE1a IC50, individual replicates (n1-n4)
[5] = RNase activity, mean (± SEM), read-out: IRE1α IC50
[6] = source data, unit from Fig. 3 / sheet Fig. 2b, read-out: IRE1a IC50, individual replicates (n1-n4)
[7] = FRET assay at 50 μM, mean (± SEM), read-out: p-IRE1α inhibition%
[8] = FRET assay at 50 μM, mean (± SEM)

T2 sequence (O75460 547-977): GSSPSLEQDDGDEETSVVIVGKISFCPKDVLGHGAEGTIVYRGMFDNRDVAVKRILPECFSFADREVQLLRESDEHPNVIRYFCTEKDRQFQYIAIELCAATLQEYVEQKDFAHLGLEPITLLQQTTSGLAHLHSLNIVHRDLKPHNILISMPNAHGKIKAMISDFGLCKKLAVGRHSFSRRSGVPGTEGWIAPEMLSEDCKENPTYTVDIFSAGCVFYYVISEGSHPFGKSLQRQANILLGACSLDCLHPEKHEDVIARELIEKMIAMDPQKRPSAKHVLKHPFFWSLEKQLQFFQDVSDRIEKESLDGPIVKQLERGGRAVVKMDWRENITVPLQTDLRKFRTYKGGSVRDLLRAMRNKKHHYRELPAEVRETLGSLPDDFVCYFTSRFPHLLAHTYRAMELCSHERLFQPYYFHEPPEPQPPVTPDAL
T1 sequence (O75460 547-977): as above

pIC50 [1, 3]: 4.94
pIC50 [1, 4]: 4.91 and 4.81 and 5.16
pIC50 [2, 5]: 5.67
pIC50 [2, 6]: 5.54 and 5.75 and 5.74
Structure (SMILES): Cc1c(CCC(=O)O)c2cc(-c3ccncc3)ccc2n1C(=O)c1ccccc1 [IA153]

pIC50 [1, 3]: 5.63
pIC50 [1, 4]: 5.50 and 5.82
pIC50 [2, 5]: 6.15
pIC50 [2, 6]: 6.15 and 6.16
Structure (SMILES): Cc1c(CCC(=O)O)c2cc(-c3cn[nH]c3)ccc2n1C(=O)c1ccccc1 [IA158]

pIC50 [1, 3]: 4.82
pIC50 [1, 4]: 4.80 and 4.84
pIC50 [2, 5]: 5.33
pIC50 [2, 6]: 5.48 and 5.21
Structure (SMILES): CC(=O)c1ccc(-c2ccc3c(c2)c(CCC(=O)O)c(C)n3C(=O)c2ccccc2)s1 [IA162]

inhibition at 50 µM [1, 7]: < 30%
IRE1α inhibition% ([2]; FRET assay at 50 μM, mean (± SEM), 50 µM): < 30%
inhibition at 50 µM [2, 8]: ≤ 50%
Structure (SMILES): COc1ccc2c(c1)c(CC(=O)O)c(C)n2C(=O)c1ccc(Cl)cc1 [Indomethacin, indomethacin, reference compound]

inhibition at 50 µM [1, 7]: < 30%
inhibition at 50 µM [2, 8]: < 30%
Structure (SMILES): CCc1c(C)n(C(=O)c2ccc(Cl)cc2)c2ccc(OC)cc12 [cms01]

More lines, now with the values behind:

Structure (SMILES): Cc1c(CCC(=O)O)c2cc(-c3ccccc3C#N)ccc2n1C(=O)c1ccccc1 [IA159]
pIC50 [1, 3]: 4.55
pIC50 [1, 4]: 4.46 and 4.66
pIC50 [2, 5]: 5.21
pIC50 [2, 6]: 5.26 and 5.16

Structure (SMILES): Cc1c(CCC(=O)O)c2cc(-c3ccc(O)cc3)ccc2n1C(=O)c1ccccc1 [IA163]
p-IRE1α IC50 ([1]; FRET assay, RNase activity, mean (± SEM)): IC₅₀ not reached
pIC50 [1, 3]: < 4.70
pIC50 [2, 5]: 5.13
pIC50 [2, 6]: 5.20 and 5.07

Structure (SMILES): Cc1c(CCC(=O)O)c2cc(Br)ccc2n1Cc1ccccc1 [IA164]
effect on p-IRE1α RNase activity in the FRET assay [1]: did not show activity
inhibition(%) ([1]; p-IRE1a, 0.000847 μM): -3.310% and -10.444% and -6.973% and -11.312%
inhibition(%) ([1]; p-IRE1a, 0.00254 μM): -11.263% and -6.154% and -5.913% and -3.985%
inhibition(%) ([1]; p-IRE1a, 0.007621 μM): -3.888% and -1.575% and -3.262% and -6.925%
inhibition(%) ([1]; p-IRE1a, 0.022862 μM): -9.528% and -12.854% and -7.504% and -7.552%
inhibition(%) ([1]; p-IRE1a, 0.205761 μM): -14.011% and -13.481% and -9.046% and -6.299%
inhibition(%) ([1]; p-IRE1a, 0.617284 μM): -12.951% and -9.625% and -7.070% and -4.226%
inhibition(%) ([1]; p-IRE1a, 1.85185 μM): -7.504% and -4.708% and -6.877% and -5.527%
inhibition(%) ([1]; p-IRE1a, 5.55556 μM): -7.793% and -8.660% and -17.192% and -15.216%
effect on IRE1α RNase activity in the FRET assay [2]: did not show activity; also recorded: complete loss of activity
inhibition at 5.55556 µM ([2]; IRE1a, 5.55556 μM): 11.3%
inhibition(%) ([2]; IRE1a, 5.55556 μM): 18.332% and 22.563% and 19.929%

Structure (SMILES): Cc1c(CCC(=O)O)c2cc(Br)ccc2n1C(=O)C1CCCCC1 [IA165]
inhibition(%) ([1]; p-IRE1a, 0.000847 μM): -0.707% and 0.787% and -7.504% and -5.865%
inhibition(%) ([1]; p-IRE1a, 0.00254 μM): -6.491% and -3.358% and -4.226% and 3.246%
inhibition(%) ([1]; p-IRE1a, 0.007621 μM): -0.418% and -0.611% and -4.226% and 0.305%
inhibition(%) ([1]; p-IRE1a, 0.068587 μM): 0.450% and 2.715% and -3.792% and 0.305%
inhibition(%) ([1]; p-IRE1a, 0.205761 μM): 1.992% and 4.885% and 4.065% and 5.463%
inhibition at 1.85185 µM ([1]; p-IRE1a, 1.85185 μM): 34%
inhibition(%) ([1]; p-IRE1a, 1.85185 μM): 36.843% and 31.203% and 36.891%
inhibition at 5.55556 µM ([1]; p-IRE1a, 5.55556 μM): 58.9%
inhibition(%) ([1]; p-IRE1a, 5.55556 μM): 56.028% and 61.836% and 59.894%
inhibition at 16.6667 µM ([1]; p-IRE1a, 16.6667 μM): 90.7%
inhibition(%) ([1]; p-IRE1a, 16.6667 μM): 88.753% and 83.846% and 83.803%
inhibition(%) ([1]; p-IRE1a, 50 μM): 95.227% and 95.680% and 96.051%
inhibition at 50 µM ([1]; p-IRE1a, 50 μM, read-out: inhibition(%)): 94.7%
effect on IRE1α RNase activity in the FRET assay [2]: decreased the inhibitory activity
inhibition at 0.617284 µM ([2]; IRE1a, 0.617284 μM): 36.9%
inhibition(%) ([2]; IRE1a, 0.617284 μM): 46.932% and 53.398% and 47.875%
inhibition at 1.85185 µM ([2]; IRE1a, 1.85185 μM): 53.7%
inhibition(%) ([2]; IRE1a, 1.85185 μM): 60.820% and 65.775% and 59.822%
inhibition at 5.55556 µM ([2]; IRE1a, 5.55556 μM): 76%
inhibition(%) ([2]; IRE1a, 5.55556 μM): 76.919% and 67.673% and 77.366%
inhibition(%) ([2]; IRE1a, 16.6667 μM): 82.061% and 76.393% and 74.507%
inhibition at 16.6667 µM ([2]; IRE1a, 16.6667 μM, read-out: inhibition(%)): 75.9%
inhibition(%) ([2]; IRE1a, 50 μM): 53.077% and 49.468% and 70.447% and 68.706%
